According to patent US12521373B2, “Use of losartan for the treatment of fibrotic diseases, in particular epidermolysis bullosa” (Crowd Pharma Losartan GmbH & Co. KG, priority 2020, dated 2026):

Assays:
Format in all cases: in vivo, human
[1] = tested on: children with moderate to severe RDEB; test: Quality of Life in EB (QOLEB) Questionnaire in clinical trial; settings: first interim analysis, FIG. 7
Text: In order to check whether beneficial effects could be obtained in human beings, a clinical trial has been performed. In the trial a group of about 30 patients has been selected. Patient enrollment: 28 children with molecularly confirmed diagnosis of moderate to severe RDEB, age 2-16 years (age of 25 months), were enrolled at the EB Center Freiburg. Although pain and itch scores partly reflect the patients' quality of life, specific scores were used. […] Therefore, children under the age of 10 years included their parents' advice when completing the questionnaires, and children under 8 years of age or unable to read, have the parents completed the questionnaire.

[2] = tested on: children with moderate to severe RDEB; test: Wong-Baker FACES Scale for Pain in clinical trial; settings: first interim analysis, FIG. 6
Text: In order to check whether beneficial effects could be obtained in human beings, a clinical trial has been performed. In the trial a group of about 30 patients has been selected. Patient enrollment: 28 children with molecularly confirmed diagnosis of moderate to severe RDEB, age 2-16 years (age of 25 months), were enrolled at the EB Center Freiburg. The Wong-Baker FACES Scale for Pain that uses happy or sad faces shown in the score http://wongbakerfaces.org/) is the preferred method of pain reporting by children. This validated tool is widely used to rate pain severity in children with both chronic and acute pain.

[3] = tested on: children with moderate to severe RDEB; test: Epidermolysis Bullosa Disease Activity and Scarring Index (EBDASI) in clinical trial
Text: In order to check whether beneficial effects could be obtained in human beings, a clinical trial has been performed. In the trial a group of about 30 patients has been selected. Patient enrollment: 28 children with molecularly confirmed diagnosis of moderate to severe RDEB, age 2-16 years (age of 25 months), were enrolled at the EB Center Freiburg. A validated scoring instrument for EB that assesses response to therapy separately from chronic damage. It is therefore suitable for interventional trials. […] It includes an activity and damage component for: 1. skin; 2. scalp; 3. mucous membranes; 4. nails; 5. other epithelialized surfaces (incl. larynx, esophagus, genitourinary), hands-pseudosyndactyly and skin cancer. Statistical values for EBDASI are shown in FIG. 2 when determined at the visits in the clinic.

[4] = tested on: children with moderate to severe RDEB; test: Birmingham Epidermolysis Bullosa Severity Score (BEBS) in clinical trial; settings: second interim analysis, baseline (clinic visit 1, day 1) vs clinic visit 5, week 40, FIG. 9
Text: In order to check whether beneficial effects could be obtained in human beings, a clinical trial has been performed. In the trial a group of about 30 patients has been selected. Patient enrollment: 28 children with molecularly confirmed diagnosis of moderate to severe RDEB, age 2-16 years (age of 25 months), were enrolled at the EB Center Freiburg. […] Eleven items are scored: area of damaged skin, involvement of nails, mouth, eyes, larynx and esophagus, scarring of hands, skin cancer, chronic wounds, alopecia and nutritional compromise. The area of damaged skin is allocated 50 points, and the 10 other items 5 points each, giving a maximum score of 100. […] Therefore, an additional EB-specific scoring instrument was used.

[5] = tested on: children with moderate to severe RDEB; test: Morphometric scoring of finger contractures (little span) in clinical trial; settings: second interim analysis, FIG. 12
Procedure: During the ongoing clinical trial described in the preceding examples, an additional novel assessment parameter was added to measure progression of finger contractures: A morphometric scoring instrument that measures the length of the span when spreading fingers as far as possible. In particular, the following parameters were measured: maximal distance of thumb tip and index finger tip (separately for left hand and right hand and the mean value of both hands), also known as 'little span'. In RDEB, disease progression leads to shortening of the span and development of pseudosyndactylies and […] deformities.

[6] = tested on: children with moderate to severe RDEB; test: Safety and tolerability in clinical trial (adverse events, blood pressure, heart function)
Procedure: Furthermore, the proPNB(pg/ml) was also measured on each visit to evaluate for signs of heart failure.

[7] = tested on: RDEB patients; test: Clinical trial in RDEB patients, overall outcome; settings: second interim analysis, summary
Procedure: In order to check whether beneficial effects could be obtained in human beings, a clinical trial has been performed. In the trial a group of about 30 patients has been selected. Patient enrollment: 28 children with molecularly confirmed diagnosis of moderate to severe RDEB, age 2-16 years (age of 25 months), were enrolled at the EB Center Freiburg. […] Such parameters were measured in the course of the trial.

[8] = tested on: CRP, IL6, Serum amyloid A and TNFα; test: Serum biomarkers of inflammation in clinical trial; settings: over the trial, FIG. 8
Procedure: A blood sample for serum analysis was collected at all clinic visits. The analyses includes TGF levels, and biomarkers of inflammation and fibrosis, such as TNFα, CRP, ferritin, IL6 (FIG. 4) and amyloid. TGFβ and TNFα was analyzed by specific quantitative ELISAs (RayBiotech) at the EB Center Freiburg, while CRP, ferritin, IL6 and amyloid are measured at the central laboratories of the Medical Centers in Freiburg.

[9] = tested on: children with moderate to severe RDEB; test: Itch Assessment Scale for the Pediatric Burn Patients in clinical trial; settings: values at clinical visits after losartan initiation, FIG. 3
Text: In order to check whether beneficial effects could be obtained in human beings, a clinical trial has been performed. In the trial a group of about 30 patients has been selected. Patient enrollment: 28 children with molecularly confirmed diagnosis of moderate to severe RDEB, age 2-16 years (age of 25 months), were enrolled at the EB Center Freiburg. The Itch Assessment Scale for the Pediatric Burn Patients, a validated instrument for assessing skin burns, which are similar to RDEB. The scale is based on the Itch Man Scale developed by Blakeney & Marvin (2000), and was used to evaluate the intensity of itch of the trial participants. […] Values taken at clinical visits were determined.

[10] = tested on: children with moderate to severe RDEB; test: Children's Dermatology Life Quality Index (CDLQI) in clinical trial
Text: In order to check whether beneficial effects could be obtained in human beings, a clinical trial has been performed. In the trial a group of about 30 patients has been selected. Patient enrollment: 28 children with molecularly confirmed diagnosis of moderate to severe RDEB, age 2-16 years (age of 25 months), were enrolled at the EB Center Freiburg. The Children's Dermatology Life Quality Index (CDLQI) was used in addition, since it has a version for young children, age of >4, using cartoon images. It consists of 10 questions regarding how the skin disease has affected the patient's quality of life over the past 1 week, in each of 10 domains, with 4 possible responses graded 0-3 (range of scores 0-30).

[11] = second interim analysis, FIG. 10
[12] = first interim analysis, after 18 patients had completed the study

Compound: CCCCc1nc(Cl)c(CO)n1Cc1ccc(-c2ccccc2-c2nnn[nH]2)cc1 [Losartan, 2-Butyl-4-chloro-1-[[2′-(1H-tetrazol-5-yl)[1,1-biphenyl]-4-yl]methyl]-1H-imidazol-5-methanol]
- Quality of life score QoLEB [1]: improvement
- Pain assessment score [2]: went statistically to a lower level
- EBDASI score ([3]; during treatment, clinic visit 1 to clinic visit 5, FIG. 2): improved substantially
- EBDASI activity score ([3]; first interim analysis, FIG. 7): improved
- EBDASI damage score ([3]; first interim analysis, FIG. 7): improved
- EBDASI activity score [3, 11]: showed improvement
- EBDASI damage score [3, 11]: showed improvement
- EBDASI score [3, 11]: significantly improved
- EBDASI total score (sum of activity and damage score) [3, 11]: showed improvement
- BEBS [4]: improved
- Little span (distance between tip of the thumb and tip of the index finger) [5]: increase
- Ejection fraction (heart's pump function) ([6]; first interim analysis): no differences
- Adverse events related to the Losartan treatment [6, 12]: no adverse events had been observed
- Overall safety and tolerability of treatment [6, 12]: safe and well tolerated
- proPNB, signs of heart failure ([6]; measured on each visit): no significant changes
- Impact on the blood pressure ([6]; normotensive patients, dosage regimen as disclosed): without negative impact
- Number of adverse events possibly related to trial medication (pruritus, not serious) ([6]; second interim analysis): 1
- Safety of treatment ([6]; second interim analysis): safe
- Disease progression [7]: reduced disease progression
- Disease symptoms [7]: improved disease symptoms
- CRP [8]: went down
- IL6 [8]: went down
- Serum amyloid A [8]: went down
- TNFα [8]: went down
- Itch score [9]: a reduction of itch
- Quality of life score CDLQI ([10]; first interim analysis, FIG. 7): improvement
- CDLQI score ([10]; second interim analysis, baseline (clinic visit 1, day 1) vs clinic visit 5, week 40, FIG. 11): amelioration of the quality of life
